# In publication PMC3270411 (Chemistry & biology, 2012):
# How the values were obtained:
# [1] = target: MARK1 (Homo sapiens, UniProt Q9P0L2); assay: KiNativ cellular kinase profiling; type: cell-based; settings: for Percent inhibition of kinase labeling by ATP-biotin: A375 cells, 1 μM, 3 hours, MARK1, labeling site Lys2; for inhibition at 1 µM: A-375, read-out: Percent inhibition of kinase labeling by ATP-biotin
# [2] = target: CDK9 (Homo sapiens, UniProt P50750); assay: KiNativ cellular kinase profiling; type: cell-based; settings: for Percent inhibition of kinase labeling by ATP-biotin: A375 cells, 1 μM, 3 hours, CDK9, labeling site Lys2; for inhibition at 1 µM: A-375, read-out: Percent inhibition of kinase labeling by ATP-biotin
# [3] = target: ZAK (Homo sapiens, UniProt Q9NYL2); assay: KiNativ cellular kinase profiling; type: cell-based; settings: for Percent inhibition of kinase labeling by ATP-biotin: A375 cells, 1 μM, 3 hours, ZAK, labeling site Lys1; for inhibition at 1 µM: A-375, read-out: Percent inhibition of kinase labeling by ATP-biotin
# [4] = test system: ZC2/TNIK,ZC3/MINK; assay: KiNativ cellular kinase profiling; type: cell-based; settings: A375 cells, 1 μM, 3 hours, labeling site Lys2
# [5] = target: T1, TAO2 (Homo sapiens, UniProt Q9UL54); assay: KiNativ cellular kinase profiling; type: cell-based; settings: for Percent inhibition of kinase labeling by ATP-biotin: A375 cells, 1 μM, 3 hours, TAO2, labeling site Lys2; for inhibition at 1 µM: A-375, read-out: Percent inhibition of kinase labeling by ATP-biotin
# T1 sequence (Q9UL54 1-1235): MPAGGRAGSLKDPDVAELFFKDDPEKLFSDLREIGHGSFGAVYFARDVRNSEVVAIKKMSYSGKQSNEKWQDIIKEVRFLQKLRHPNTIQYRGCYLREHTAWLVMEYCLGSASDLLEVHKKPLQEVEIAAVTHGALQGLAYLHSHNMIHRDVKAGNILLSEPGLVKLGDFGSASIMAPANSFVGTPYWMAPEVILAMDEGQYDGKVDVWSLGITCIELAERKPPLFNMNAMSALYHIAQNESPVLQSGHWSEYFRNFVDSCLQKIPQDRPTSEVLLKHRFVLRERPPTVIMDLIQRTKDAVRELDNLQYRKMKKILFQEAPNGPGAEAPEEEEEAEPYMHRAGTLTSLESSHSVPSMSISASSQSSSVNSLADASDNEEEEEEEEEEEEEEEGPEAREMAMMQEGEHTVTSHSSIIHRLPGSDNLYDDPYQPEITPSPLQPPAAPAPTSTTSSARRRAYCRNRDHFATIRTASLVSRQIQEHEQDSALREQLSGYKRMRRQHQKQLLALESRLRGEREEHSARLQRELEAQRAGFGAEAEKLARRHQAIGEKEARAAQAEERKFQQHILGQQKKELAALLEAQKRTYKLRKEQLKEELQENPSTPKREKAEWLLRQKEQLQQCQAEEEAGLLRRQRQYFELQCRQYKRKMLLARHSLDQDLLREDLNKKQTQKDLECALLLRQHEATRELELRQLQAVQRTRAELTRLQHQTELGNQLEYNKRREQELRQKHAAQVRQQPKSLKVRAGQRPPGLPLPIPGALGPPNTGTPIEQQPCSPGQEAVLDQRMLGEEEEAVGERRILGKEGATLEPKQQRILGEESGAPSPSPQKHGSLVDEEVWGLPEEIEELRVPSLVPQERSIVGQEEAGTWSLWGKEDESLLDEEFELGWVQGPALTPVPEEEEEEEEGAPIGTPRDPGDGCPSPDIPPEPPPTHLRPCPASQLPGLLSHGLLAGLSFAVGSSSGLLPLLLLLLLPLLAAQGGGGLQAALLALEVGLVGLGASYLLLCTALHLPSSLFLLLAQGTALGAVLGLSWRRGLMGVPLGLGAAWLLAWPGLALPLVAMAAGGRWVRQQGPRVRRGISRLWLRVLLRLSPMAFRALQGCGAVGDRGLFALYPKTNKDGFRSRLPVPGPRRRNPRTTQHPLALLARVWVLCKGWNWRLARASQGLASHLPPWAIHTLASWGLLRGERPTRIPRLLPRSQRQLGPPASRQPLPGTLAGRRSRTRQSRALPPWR
# [6] = target: T2, ITPK1 (Homo sapiens, UniProt Q13572); assay: KiNativ cellular kinase profiling; type: cell-based; settings: for Percent inhibition of kinase labeling by ATP-biotin: A375 cells, 1 μM, 3 hours, ITPK1, labeling site ATP; for inhibition at 1 µM: A-375, read-out: Percent inhibition of kinase labeling by ATP-biotin
# T2 sequence (Q13572 1-414): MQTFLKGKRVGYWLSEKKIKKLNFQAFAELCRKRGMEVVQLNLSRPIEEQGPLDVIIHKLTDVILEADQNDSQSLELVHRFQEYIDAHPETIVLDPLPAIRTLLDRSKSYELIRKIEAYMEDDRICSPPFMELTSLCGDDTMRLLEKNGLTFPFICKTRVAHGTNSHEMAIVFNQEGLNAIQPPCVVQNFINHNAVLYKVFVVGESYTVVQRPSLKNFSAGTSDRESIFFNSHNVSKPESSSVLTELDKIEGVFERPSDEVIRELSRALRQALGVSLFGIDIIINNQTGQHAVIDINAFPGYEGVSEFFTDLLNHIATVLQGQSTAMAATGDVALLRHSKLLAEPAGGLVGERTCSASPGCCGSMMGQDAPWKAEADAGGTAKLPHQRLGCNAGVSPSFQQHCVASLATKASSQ
# [7] = target: RAF1 (Homo sapiens, UniProt P04049); assay: KiNativ cellular kinase profiling; type: cell-based; settings: for Percent inhibition of kinase labeling by ATP-biotin: A375 cells, 1 μM, 3 hours, RAF1, labeling site Lys2; for inhibition at 1 µM: A-375, read-out: Percent inhibition of kinase labeling by ATP-biotin
# [8] = target: IRAK1 (Homo sapiens, UniProt P51617); assay: KiNativ cellular kinase profiling; type: cell-based; settings: for Percent inhibition of kinase labeling by ATP-biotin: A375 cells, 1 μM, 3 hours, IRAK1, labeling site Lys2; for inhibition at 1 µM: A-375, read-out: Percent inhibition of kinase labeling by ATP-biotin
# [9] = test system: PKD1,PKD2; assay: KiNativ cellular kinase profiling; type: cell-based; settings: A375 cells, 1 μM, 3 hours; PKD1,PKD2, labeling site Lys2
# [10] = target: MARK3 (Homo sapiens, UniProt P27448); assay: KiNativ cellular kinase profiling; type: cell-based; settings: for Percent inhibition of kinase labeling by ATP-biotin: A375 cells, 1 μM, 3 hours, MARK3, labeling site Lys1; for inhibition at 1 µM: A-375, read-out: Percent inhibition of kinase labeling by ATP-biotin
# [11] = test system: JNK1,JNK2,JNK3; assay: KiNativ cellular kinase profiling; type: cell-based; settings: A375 cells, 1 μM, 3 hours; JNK1,JNK2,JNK3, labeling site Lys2
# [12] = target: T3, PHKg2 (Homo sapiens, UniProt P15735); assay: KiNativ cellular kinase profiling; type: cell-based; settings: for Percent inhibition of kinase labeling by ATP-biotin: A375 cells, 1 μM, 3 hours, PHKg2, labeling site Lys1; for inhibition at 1 µM: A-375, read-out: Percent inhibition of kinase labeling by ATP-biotin
# T3 sequence (P15735 1-406): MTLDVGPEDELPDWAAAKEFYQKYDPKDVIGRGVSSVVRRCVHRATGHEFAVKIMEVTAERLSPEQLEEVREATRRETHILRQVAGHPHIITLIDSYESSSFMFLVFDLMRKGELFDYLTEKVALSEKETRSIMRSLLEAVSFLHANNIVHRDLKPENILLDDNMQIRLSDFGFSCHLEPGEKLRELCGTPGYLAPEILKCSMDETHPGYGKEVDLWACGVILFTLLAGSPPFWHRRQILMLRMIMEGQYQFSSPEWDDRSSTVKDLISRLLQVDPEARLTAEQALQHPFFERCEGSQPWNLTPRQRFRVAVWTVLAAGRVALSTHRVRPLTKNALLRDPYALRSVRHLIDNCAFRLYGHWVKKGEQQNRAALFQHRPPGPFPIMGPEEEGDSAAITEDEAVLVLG
# [13] = target: PIP5K3 (Homo sapiens, UniProt Q9Y2I7); assay: KiNativ cellular kinase profiling; type: cell-based; settings: for Percent inhibition of kinase labeling by ATP-biotin: A375 cells, 1 μM, 3 hours, PIP5K3, labeling site ATP; for inhibition at 1 µM: A-375, read-out: Percent inhibition of kinase labeling by ATP-biotin
# [14] = test system: c-Jun phosphorylation and Erk, p38, JNK, Akt, Stat, NF-κB and Rsk pathway nodes; assay: microscopy-based cellular pathway profiling with phospho-specific antibodies; type: cell-based; settings: phospho-specific antibody microscopy
# [15] = target: KIT(V559D) (Homo sapiens, UniProt P10721, V559D); assay: KinomeScan dissociation constant; type: binding
# Chain of KIT(V559D) (P10721 26-976 V559D): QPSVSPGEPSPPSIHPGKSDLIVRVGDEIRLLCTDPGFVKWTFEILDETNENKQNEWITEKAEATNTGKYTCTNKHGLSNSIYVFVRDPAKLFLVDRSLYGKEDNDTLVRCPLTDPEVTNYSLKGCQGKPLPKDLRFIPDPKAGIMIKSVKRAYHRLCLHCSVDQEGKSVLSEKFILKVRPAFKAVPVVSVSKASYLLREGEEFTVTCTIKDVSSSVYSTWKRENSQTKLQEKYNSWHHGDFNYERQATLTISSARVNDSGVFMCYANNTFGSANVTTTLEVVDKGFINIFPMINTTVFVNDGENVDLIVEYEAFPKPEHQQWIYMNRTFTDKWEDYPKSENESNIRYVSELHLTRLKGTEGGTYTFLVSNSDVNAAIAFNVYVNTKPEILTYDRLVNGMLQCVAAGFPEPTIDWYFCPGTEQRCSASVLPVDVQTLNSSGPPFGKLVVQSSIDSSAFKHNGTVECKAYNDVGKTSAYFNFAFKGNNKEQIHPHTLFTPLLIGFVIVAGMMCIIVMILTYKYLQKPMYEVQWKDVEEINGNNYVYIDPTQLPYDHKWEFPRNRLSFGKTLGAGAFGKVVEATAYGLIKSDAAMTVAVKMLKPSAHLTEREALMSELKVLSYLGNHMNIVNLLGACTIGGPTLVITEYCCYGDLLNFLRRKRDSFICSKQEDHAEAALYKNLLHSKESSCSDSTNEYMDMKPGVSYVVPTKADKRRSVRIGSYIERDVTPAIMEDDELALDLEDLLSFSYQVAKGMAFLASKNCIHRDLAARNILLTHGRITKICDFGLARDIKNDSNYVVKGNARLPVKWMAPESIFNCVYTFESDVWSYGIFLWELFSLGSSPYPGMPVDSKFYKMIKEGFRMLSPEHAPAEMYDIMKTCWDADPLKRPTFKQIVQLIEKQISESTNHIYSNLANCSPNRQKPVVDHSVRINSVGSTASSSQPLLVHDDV
# Chain of RAF1 (P04049 whole entry): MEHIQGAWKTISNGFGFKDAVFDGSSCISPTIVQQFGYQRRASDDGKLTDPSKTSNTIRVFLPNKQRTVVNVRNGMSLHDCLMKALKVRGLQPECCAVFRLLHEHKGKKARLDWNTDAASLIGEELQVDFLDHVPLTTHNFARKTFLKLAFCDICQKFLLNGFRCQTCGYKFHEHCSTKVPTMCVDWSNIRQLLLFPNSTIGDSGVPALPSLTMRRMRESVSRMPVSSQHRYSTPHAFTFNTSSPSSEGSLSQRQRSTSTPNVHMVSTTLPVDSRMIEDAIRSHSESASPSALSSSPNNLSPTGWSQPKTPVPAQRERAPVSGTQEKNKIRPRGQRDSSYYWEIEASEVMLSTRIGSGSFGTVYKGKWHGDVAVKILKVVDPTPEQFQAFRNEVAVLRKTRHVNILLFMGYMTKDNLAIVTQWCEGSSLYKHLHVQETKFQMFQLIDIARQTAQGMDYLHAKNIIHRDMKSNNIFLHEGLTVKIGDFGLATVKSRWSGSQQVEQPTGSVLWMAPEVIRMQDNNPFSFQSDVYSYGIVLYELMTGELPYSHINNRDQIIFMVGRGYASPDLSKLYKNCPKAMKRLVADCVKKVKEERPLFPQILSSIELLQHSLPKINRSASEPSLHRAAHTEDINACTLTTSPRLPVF
# Chain of PIP5K3 (Q9Y2I7 whole entry): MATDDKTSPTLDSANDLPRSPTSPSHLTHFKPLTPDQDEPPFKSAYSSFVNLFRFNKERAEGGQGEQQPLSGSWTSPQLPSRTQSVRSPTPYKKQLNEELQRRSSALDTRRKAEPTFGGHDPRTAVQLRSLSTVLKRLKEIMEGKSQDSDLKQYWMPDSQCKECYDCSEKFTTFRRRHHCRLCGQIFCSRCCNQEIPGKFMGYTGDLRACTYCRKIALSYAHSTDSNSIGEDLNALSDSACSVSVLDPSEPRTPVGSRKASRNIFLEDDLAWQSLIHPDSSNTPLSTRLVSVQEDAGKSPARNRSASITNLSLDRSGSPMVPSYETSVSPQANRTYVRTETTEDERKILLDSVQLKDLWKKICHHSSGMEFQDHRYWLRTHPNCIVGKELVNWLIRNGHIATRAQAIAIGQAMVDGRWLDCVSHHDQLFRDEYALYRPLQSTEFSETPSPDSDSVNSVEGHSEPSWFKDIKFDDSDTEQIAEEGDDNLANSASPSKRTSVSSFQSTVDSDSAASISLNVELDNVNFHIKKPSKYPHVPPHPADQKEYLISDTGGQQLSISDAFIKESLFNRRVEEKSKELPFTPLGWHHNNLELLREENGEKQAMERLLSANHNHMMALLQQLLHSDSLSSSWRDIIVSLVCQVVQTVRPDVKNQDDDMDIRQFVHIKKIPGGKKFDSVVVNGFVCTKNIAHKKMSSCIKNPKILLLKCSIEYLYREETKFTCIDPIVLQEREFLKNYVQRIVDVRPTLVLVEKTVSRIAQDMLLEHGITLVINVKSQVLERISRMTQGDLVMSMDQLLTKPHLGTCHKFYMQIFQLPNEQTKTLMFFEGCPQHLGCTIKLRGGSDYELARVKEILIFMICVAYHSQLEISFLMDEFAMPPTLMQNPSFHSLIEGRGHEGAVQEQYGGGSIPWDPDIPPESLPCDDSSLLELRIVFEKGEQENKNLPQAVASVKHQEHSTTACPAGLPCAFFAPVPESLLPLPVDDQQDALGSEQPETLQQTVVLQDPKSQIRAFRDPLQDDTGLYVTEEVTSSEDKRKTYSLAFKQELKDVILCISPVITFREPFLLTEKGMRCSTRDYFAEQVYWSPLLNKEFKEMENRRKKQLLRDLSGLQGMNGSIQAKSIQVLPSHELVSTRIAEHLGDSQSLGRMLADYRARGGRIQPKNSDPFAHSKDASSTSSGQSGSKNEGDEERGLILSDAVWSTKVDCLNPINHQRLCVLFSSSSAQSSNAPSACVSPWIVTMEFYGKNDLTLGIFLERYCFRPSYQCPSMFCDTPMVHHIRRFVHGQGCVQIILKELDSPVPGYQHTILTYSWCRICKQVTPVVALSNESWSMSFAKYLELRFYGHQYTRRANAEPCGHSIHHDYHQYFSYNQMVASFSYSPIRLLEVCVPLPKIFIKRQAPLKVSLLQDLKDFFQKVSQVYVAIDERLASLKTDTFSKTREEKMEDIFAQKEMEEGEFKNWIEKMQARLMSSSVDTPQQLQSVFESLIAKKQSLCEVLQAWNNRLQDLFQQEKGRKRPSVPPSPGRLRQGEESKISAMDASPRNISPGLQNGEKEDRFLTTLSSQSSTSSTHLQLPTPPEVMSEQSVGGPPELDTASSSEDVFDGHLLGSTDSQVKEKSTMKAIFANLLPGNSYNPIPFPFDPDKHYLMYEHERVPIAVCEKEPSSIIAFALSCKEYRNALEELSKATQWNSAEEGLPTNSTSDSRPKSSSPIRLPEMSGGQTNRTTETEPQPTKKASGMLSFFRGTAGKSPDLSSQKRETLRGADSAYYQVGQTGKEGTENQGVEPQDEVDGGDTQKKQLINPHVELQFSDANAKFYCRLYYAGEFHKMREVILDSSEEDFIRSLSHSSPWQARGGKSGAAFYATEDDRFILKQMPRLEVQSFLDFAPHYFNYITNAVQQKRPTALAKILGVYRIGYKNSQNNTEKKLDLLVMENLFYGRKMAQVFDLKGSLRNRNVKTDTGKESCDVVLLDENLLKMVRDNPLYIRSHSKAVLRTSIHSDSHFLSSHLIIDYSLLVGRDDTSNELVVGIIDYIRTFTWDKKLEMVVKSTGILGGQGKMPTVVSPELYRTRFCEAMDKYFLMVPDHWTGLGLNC
# Chain of ZAK (Q9NYL2 whole entry): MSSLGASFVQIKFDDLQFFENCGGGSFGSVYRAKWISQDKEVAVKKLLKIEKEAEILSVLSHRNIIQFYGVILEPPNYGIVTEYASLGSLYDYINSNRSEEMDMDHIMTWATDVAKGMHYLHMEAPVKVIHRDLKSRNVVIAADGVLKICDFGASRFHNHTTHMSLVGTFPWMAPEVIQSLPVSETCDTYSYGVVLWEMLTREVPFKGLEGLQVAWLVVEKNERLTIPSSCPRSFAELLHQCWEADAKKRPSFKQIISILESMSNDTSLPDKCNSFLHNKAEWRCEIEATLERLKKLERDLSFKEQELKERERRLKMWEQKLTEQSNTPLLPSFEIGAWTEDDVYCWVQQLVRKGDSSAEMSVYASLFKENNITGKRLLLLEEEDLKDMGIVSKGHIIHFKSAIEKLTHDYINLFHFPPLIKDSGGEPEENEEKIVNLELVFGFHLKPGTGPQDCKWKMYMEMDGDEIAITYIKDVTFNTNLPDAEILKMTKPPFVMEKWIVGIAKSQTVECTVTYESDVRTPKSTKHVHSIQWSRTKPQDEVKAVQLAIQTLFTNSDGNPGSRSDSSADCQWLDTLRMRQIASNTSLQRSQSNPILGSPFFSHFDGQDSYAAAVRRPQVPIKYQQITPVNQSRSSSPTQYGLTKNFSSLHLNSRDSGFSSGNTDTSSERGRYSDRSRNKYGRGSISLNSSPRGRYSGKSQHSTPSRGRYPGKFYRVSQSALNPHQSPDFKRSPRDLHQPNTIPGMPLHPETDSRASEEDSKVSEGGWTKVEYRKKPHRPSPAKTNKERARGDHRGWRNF
inhibition at 1 µM [1],inhibition at 1 µM [2],inhibition at 1 µM [3],inhibition at 1 µM [5],inhibition at 1 µM [6],inhibition at 1 µM [7],Kd [15],inhibition at 1 µM [8],inhibition at 1 µM [10],inhibition at 1 µM [12],inhibition at 1 µM [13],Compound,Percent inhibition of kinase labeling by ATP-biotin [1],Percent inhibition of kinase labeling by ATP-biotin [2],Percent inhibition of kinase labeling by ATP-biotin [3],Percent inhibition of kinase labeling by ATP-biotin [4],Percent inhibition of kinase labeling by ATP-biotin [5],Percent inhibition of kinase labeling by ATP-biotin [6],Percent inhibition of kinase labeling by ATP-biotin [9],Percent inhibition of kinase labeling by ATP-biotin [11],on-/off-pathway activity in cellular pathway profiling [14],other results
–,–,–,–,–,–,–,–,–,–,–,CCC(=O)Nc1cccc(C(=O)Nc2ccc(Nc3nccc(-c4cccnc4)n3)cc2)c1 [JNK-IN-6],23.9%,7.6%,3%,52.8%,22.5%,27%,15.9%,27.3%,–,Percent inhibition of kinase labeling by ATP-biotin [7]: −20.2%; Percent inhibition of kinase labeling by ATP-biotin [8]: −4.6%; Percent inhibition of kinase labeling by ATP-biotin [10]: −7.3%; Percent inhibition of kinase labeling by ATP-biotin [12]: 28%; Percent inhibition of kinase labeling by ATP-biotin [13]: 16.8%
8.9%,-34.1%,-7.8%,-21.6%,24.6%,-41.4%,92 nM,0.8%,-12%,-0.8%,18.7%,Cc1cc(NC(=O)c2cccc(NC(=O)/C=C/CN(C)C)c2)ccc1Nc1nccc(-c2cccnc2)n1 [JNK-IN-8],–,–,–,45.1%,–,–,−3%,98.7%,only on-pathway activity,–
18.6%,-23.4%,84.4%,42.6%,-0.7%,25.5%,8.2 nM,5.4%,-27.8%,-76%,99.3%,CN(C)C/C=C/C(=O)Nc1cccc(C(=O)Nc2ccc(Nc3nccc(-c4c(-c5ccccc5)nn5ccccc45)n3)cc2)c1 [JNK-IN-11],–,–,–,75.9%,–,–,10.4%,99.8%,off-pathway activity,–
–,–,–,–,–,–,–,–,–,–,–,CN(C)C/C=C/C(=O)Nc1cccc(C(=O)Nc2ccc(Nc3nccc(/C(C#N)=C4\Nc5ccccc5S4)n3)cc2)c1 [JNK-IN-12],−43.5%,−35.3%,−40.2%,−36.2%,−13%,8.6%,−39.3%,98.6%,only on-pathway activity,Percent inhibition of kinase labeling by ATP-biotin [7]: 8.6%; Percent inhibition of kinase labeling by ATP-biotin [8]: −14.9%; Percent inhibition of kinase labeling by ATP-biotin [10]: −67.9%; Percent inhibition of kinase labeling by ATP-biotin [12]: −94.1%; Percent inhibition of kinase labeling by ATP-biotin [13]: −11.4%

Compound,inhibition at 1 µM [1],inhibition at 1 µM [2],inhibition at 1 µM [3],inhibition at 1 µM [5],inhibition at 1 µM [6],inhibition at 1 µM [7],Kd [15],inhibition at 1 µM [8],inhibition at 1 µM [10],inhibition at 1 µM [12],inhibition at 1 µM [13],Percent inhibition of kinase labeling by ATP-biotin [1],Percent inhibition of kinase labeling by ATP-biotin [2],Percent inhibition of kinase labeling by ATP-biotin [3],Percent inhibition of kinase labeling by ATP-biotin [4],Percent inhibition of kinase labeling by ATP-biotin [5],Percent inhibition of kinase labeling by ATP-biotin [6],Percent inhibition of kinase labeling by ATP-biotin [9],Percent inhibition of kinase labeling by ATP-biotin [11],on-/off-pathway activity in cellular pathway profiling [14],other results
CN(C)C/C=C/C(=O)Nc1cccc(C(=O)Nc2ccc(Nc3nccc(-c4cccnc4)n3)cc2)c1 [JNK-IN-7],7.9%,16.6%,15.5%,-3.7%,-0.2%,-7.3%,48 nM,81%,-13.5%,-7%,91.8%,–,–,–,31%,–,–,18.2%,99.7%,only on-pathway activity,–
